Where two headings read alike, the source gives them in different places.
Key:
[1] = test system: A. baumannii ATCC 17978 (SEN) and A. baumannii ATCC BAA-1605 (MDR); assay: Frequency-of-resistance (FoR) assay, relative MIC of mutants; assay type: cell-based, Acinetobacter baumannii; conditions: for MIC: Acinetobacter baumannii
Method: (§1) The susceptibility of antibiotics to resistance development was evaluated in two strains of each bacterial species: a multidrug-resistant strain and an antibiotic-sensitive strain of Escherichia coli, Klebsiella pneumoniae, Acinetobacter baumannii, and Pseudomonas aeruginosa. To explore first-step resistance, we previously used a standard protocol for spontaneous frequency-of-resistance analysis (FoR assay) at multiple concentrations of each antibiotic[10],[28],[31]–[33]. […] For all other combinations, approximately 10^10 bacterial cells were exposed to one of each antibiotic on agar plates for two days at concentrations where the given strain is susceptible. We examined resistance levels by contrasting the minimum inhibitory concentration (MICs) of the mutated strains to the original wild-type bacterial strain (i.e., relative MIC).
(§2) To estimate the frequency of spontaneous mutations that confer resistance in a microbial population, we conducted a frequency of resistance (FoR) assay following established protocols[10],[31]–[33]. […] Prior to plating, bacteria were grown overnight in MHB medium at 37 °C and 250 RPM, then centrifuged and washed in MHB. All experiments were performed in triplicate, and plates were incubated at 37 °C for 48 hours. Total colony-forming units (CFUs) were determined by plating appropriate dilutions onto antibiotic-free MHB agar. Resistance frequencies were calculated by dividing the number of resistant colonies by the initial viable cell count. From the plates with the highest antibiotic concentration, ten colonies were selected for MIC determination and whole-genome sequencing.
(§3) A robotic liquid handling system was used to automatically prepare a 11 to 16-step serial dilution in 384-well microtiter plates (Greiner). A final concentration of 5 × 10^5 bacterial cells per mL were inoculated into each well containing 60 µL MHB medium. Bacterial cultures were incubated at 37 °C with continuous shaking (Infors shaker, 900 rpm with 3 mm throw) for 18 hours (2 replicates from each). Cell growth was monitored by measuring the optical density (OD600 values, using Biotek Synergy microplate reader). MIC was defined as the antibiotic concentration of complete growth inhibition (i.e., OD600 < 0.05). Relative MIC was calculated as follows:1 relativeMIC=MICevolved/MICancestor […]
(§4) Supplementary Figure 3. Resistance levels following the frequency of resistance assay across bacterial strains. The level of resistance was measured as the fold change in relative MIC between evolved and ancestral strains. Data are grouped by bacterial strain (A. baumannii (AB), E. coli (EC), K. pneumoniae (KP), and P. aeruginosa (PA)) and categorized as either multidrug-resistant (MDR) or sensitive (SEN). Each data point represents a laboratory evolved line, and boxplots show the median, first and third quartiles, with whiskers indicating the 5th and 95th percentiles. […]
(§5) analysis was performed using two-sided Dunn’s post-hoc test with Benjamini-Hochberg correction for multiple comparisons (**/ * indicates p < 0.01/ 0.05). For detailed information on antibiotic and bacterial species, see Supplementary Table 1. For mode of action groups, refer to Table 1. Source data are provided as a Source Data file.

[2] = test system: K. pneumoniae ATCC 10031 (SEN) and K. pneumoniae ATCC 700603 (MDR); assay: as above; assay type: cell-based, Klebsiella pneumoniae; conditions: for MIC: Klebsiella pneumoniae
Method: as §1, §2, §3, §4, §5

[3] = Acinetobacter baumannii ATCC 17978 (AB-SEN), evolved line 1 versus ancestor
[4] = Acinetobacter baumannii ATCC 17978 (AB-SEN), evolved line 2 versus ancestor
[5] = Acinetobacter baumannii ATCC 17978 (AB-SEN), evolved line 3 versus ancestor
[6] = read-out: MIC of evolved line, Acinetobacter baumannii ATCC 17978 (AB-SEN), evolved line 1
[7] = read-out: MIC of evolved line, Acinetobacter baumannii ATCC 17978 (AB-SEN), evolved line 2
[8] = read-out: MIC of evolved line, Acinetobacter baumannii ATCC 17978 (AB-SEN), evolved line 3
[9] = Klebsiella pneumoniae ATCC 10031 (KP-SEN), evolved line 1 versus ancestor
[10] = Klebsiella pneumoniae ATCC 10031 (KP-SEN), evolved line 2 versus ancestor
[11] = Klebsiella pneumoniae ATCC 10031 (KP-SEN), evolved line 3 versus ancestor
[12] = Klebsiella pneumoniae ATCC 700603 (KP-MDR), evolved line 1 versus ancestor
[13] = Klebsiella pneumoniae ATCC 700603 (KP-MDR), evolved line 2 versus ancestor
[14] = Klebsiella pneumoniae ATCC 700603 (KP-MDR), evolved line 3 versus ancestor
[15] = read-out: MIC of evolved line, Klebsiella pneumoniae ATCC 10031 (KP-SEN), evolved line 1
[16] = read-out: MIC of evolved line, Klebsiella pneumoniae ATCC 10031 (KP-SEN), evolved line 2
[17] = read-out: MIC of evolved line, Klebsiella pneumoniae ATCC 700603 (KP-MDR), evolved line 1
[18] = read-out: MIC of evolved line, Klebsiella pneumoniae ATCC 700603 (KP-MDR), evolved line 2
[19] = read-out: MIC of evolved line, Klebsiella pneumoniae ATCC 10031 (KP-SEN), evolved line 3
[20] = read-out: MIC of evolved line, Klebsiella pneumoniae ATCC 700603 (KP-MDR), evolved line 3

## CN[C@@H]1[C@@H](O[C@H]2O[C@H](CO)[C@@H](N)[C@H](O)[C@H]2O)OC2C[C@@H](N)[C@@H](O[C@H]3[C@H](O)[C@@H](O)[C@H](N)C[C@@H]3N)OC2[C@@H]1O (stereo partly drawn) [Apramycin]
[1]; [3]
  Relative MIC: 8
[1]; [4]
  Relative MIC: 16
[1]; [5]
  Relative MIC: 8
[1]; [6]
  MIC: 32 µg/mL
[1]; [7]
  MIC: 64 µg/mL
[1]; [8]
  MIC: 32 µg/mL
[2]; [9]
  Relative MIC: 8
[2]; [10]
  Relative MIC: 8
[2]; [11]
  Relative MIC: 2
[2]; [12]
  Relative MIC: 2
[2]; [13]
  Relative MIC: 2
[2]; [14]
  Relative MIC: 1
[2]; [15]
  MIC: 16 µg/mL
[2]; [16]
  MIC: 16 µg/mL
[2]; [17]
  MIC: 8 µg/mL
[2]; [18]
  MIC: 8 µg/mL

## Nc1nc(-n2cc(C(=O)O)c(=O)c3cc(F)c(N4CC(O)C4)c(Cl)c32)c(F)cc1F [Delafloxacin]
[1]; [3]
  Relative MIC: 8
[1]; [4]
  Relative MIC: 4
[1]; [5]
  Relative MIC: 8
[1]; [6]
  MIC: 0.5 µg/mL
[1]; [7]
  MIC: 0.25 µg/mL
[1]; [8]
  MIC: 0.5 µg/mL
[2]; [9]
  Relative MIC: 32
[2]; [10]
  Relative MIC: 64
[2]; [11]
  Relative MIC: 32
[2]; [12]
  Relative MIC: 4
[2]; [13]
  Relative MIC: 4
[2]; [14]
  Relative MIC: 4
[2]; [15]
  MIC: 0.0625 µg/mL
[2]; [16]
  MIC: 0.125 µg/mL
[2]; [19]
  MIC: 0.0625 µg/mL
[2]; [17]
  MIC: 4 µg/mL
[2]; [18]
  MIC: 4 µg/mL
[2]; [20]
  MIC: 4 µg/mL

## C[C@H]1c2cccc(O)c2C(=O)C2=C(O)[C@]3(O)C(=O)C(C(N)=O)=C(O)[C@@H](N(C)C)[C@@H]3[C@@H](O)[C@@H]21 [Doxycycline]
[1]; [3]
  Relative MIC: 1
[1]; [4]
  Relative MIC: 1
[1]; [5]
  Relative MIC: 1
[2]; [9]
  Relative MIC: 4
[2]; [10]
  Relative MIC: 4
[2]; [11]
  Relative MIC: 2
[2]; [15]
  MIC: 1 µg/mL
[2]; [16]
  MIC: 1 µg/mL
[2]; [19]
  MIC: 0.5 µg/mL

## CN(C)[C@@H]1C(O)=C(C(N)=O)C(=O)[C@@]2(O)C(O)=C3C(=O)c4c(O)c(NC(=O)CN5CCCC5)cc(F)c4C[C@H]3C[C@@H]12 [Eravacycline]
[1]; [3]
  Relative MIC: 8
[1]; [4]
  Relative MIC: 16
[1]; [5]
  Relative MIC: 8
[1]; Acinetobacter baumannii ATCC BAA 1605 (AB-MDR), evolved line 1 versus ancestor
  Relative MIC: 4
[1]; Acinetobacter baumannii ATCC BAA 1605 (AB-MDR), evolved line 2 versus ancestor
  Relative MIC: 4
[1]; Acinetobacter baumannii ATCC BAA 1605 (AB-MDR), evolved line 3 versus ancestor
  Relative MIC: 8
[1]; [6]
  MIC: 0.5 µg/mL
[1]; [7]
  MIC: 1 µg/mL
[1]; [8]
  MIC: 0.5 µg/mL
[1]; read-out: MIC of evolved line, Acinetobacter baumannii ATCC BAA 1605 (AB-MDR), evolved line 1
  MIC: 8 µg/mL
[1]; read-out: MIC of evolved line, Acinetobacter baumannii ATCC BAA 1605 (AB-MDR), evolved line 2
  MIC: 8 µg/mL
[1]; read-out: MIC of evolved line, Acinetobacter baumannii ATCC BAA 1605 (AB-MDR), evolved line 3
  MIC: 16 µg/mL
[2]; [9]
  Relative MIC: 16
[2]; [10]
  Relative MIC: 16
[2]; [11]
  Relative MIC: 16
[2]; [12]
  Relative MIC: 8
[2]; [13]
  Relative MIC: 8
[2]; [14]
  Relative MIC: 8
[2]; [15]
  MIC: 0.5 µg/mL
[2]; [16]
  MIC: 0.5 µg/mL
[2]; [19]
  MIC: 0.5 µg/mL
[2]; [17]
  MIC: 32 µg/mL
[2]; [18]
  MIC: 32 µg/mL
[2]; [20]
  MIC: 32 µg/mL

## CNC(C)C1CCC(N)C(OC2C(N)CC(N)C(OC3OCC(C)(O)C(NC)C3O)C2O)O1 (stereo not drawn) [Gentamicin]
[1]; [3]
  Relative MIC: 32
[1]; [4]
  Relative MIC: 16
[1]; [5]
  Relative MIC: 64
[1]; [6]
  MIC: 16 µg/mL
[1]; [7]
  MIC: 8 µg/mL
[1]; [8]
  MIC: 32 µg/mL
[2]; [9]
  Relative MIC: 2
[2]; [10]
  Relative MIC: 2
[2]; [11]
  Relative MIC: 32
[2]; [15]
  MIC: 0.5 µg/mL
[2]; [16]
  MIC: 0.5 µg/mL
[2]; [19]
  MIC: 8 µg/mL

## O=c1ccc2ncc(=O)n3c2n1C[C@H]3CN1CCC(NCc2cc3c(cn2)OCCC3)CC1 [Gepotidacin]
[1]; [3]
  Relative MIC: 16
[1]; [4]
  Relative MIC: 4
[1]; [5]
  Relative MIC: 16
[1]; [7]
  MIC: 8 µg/mL
[2]; [9]
  Relative MIC: 1
[2]; [10]
  Relative MIC: 1
[2]; [11]
  Relative MIC: 1
[2]; [15]
  MIC: 0.0625 µg/mL
[2]; [16]
  MIC: 0.0625 µg/mL
[2]; [19]
  MIC: 0.0625 µg/mL

## C[C@@H](O)[C@H]1C(=O)N2C(C(=O)O)=C(S[C@@H]3CN[C@H](C(=O)N(C)C)C3)[C@H](C)[C@H]12 [Meropenem]
[2]; [15]
  MIC: 0.0156 µg/mL
[2]; [16]
  MIC: 0.0156 µg/mL
[2]; [19]
  MIC: 0.0156 µg/mL
[2]; [17]
  MIC: 2 µg/mL
[2]; [18]
  MIC: 0.0625 µg/mL
[2]; [20]
  MIC: 1 µg/mL

## COc1c(N2C[C@@H]3CCCN[C@@H]3C2)c(F)cc2c(=O)c(C(=O)O)cn(C3CC3)c12 [Moxifloxacin]
[1]; [6]
  MIC: 0.5 µg/mL
[1]; [7]
  MIC: 2 µg/mL
[1]; [8]
  MIC: 1 µg/mL
[2]; [15]
  MIC: 0.25 µg/mL
[2]; [17]
  MIC: 4 µg/mL
[2]; [18]
  MIC: 4 µg/mL
[2]; [20]
  MIC: 4 µg/mL

## CN(C)c1cc(CNCC(C)(C)C)c(O)c2c1C[C@H]1C[C@H]3[C@H](N(C)C)C(O)=C(C(N)=O)C(=O)[C@@]3(O)C(O)=C1C2=O [Omadacycline]
[1]; [3]
  Relative MIC: 8
[1]; [4]
  Relative MIC: 8
[1]; [5]
  Relative MIC: 8
[1]; [6]
  MIC: 4 µg/mL
[1]; [7]
  MIC: 4 µg/mL
[1]; [8]
  MIC: 4 µg/mL
[2]; [9]
  Relative MIC: 32
[2]; [10]
  Relative MIC: 16
[2]; [11]
  Relative MIC: 16
[2]; [15]
  MIC: 32 µg/mL
[2]; [16]
  MIC: 16 µg/mL
[2]; [19]
  MIC: 16 µg/mL

## C[C@@H]1CN2c3c(cc4c(N5C(=O)OC[C@@H]5C)noc4c3F)CC3(C(=O)NC(=O)NC3=O)[C@H]2[C@H](C)O1 [Zoliflodacin]
[2]; [9]
  Relative MIC: 32
[2]; [10]
  Relative MIC: 128
[2]; [11]
  Relative MIC: 128
[2]; [15]
  MIC: 4 µg/mL
[2]; [16]
  MIC: 16 µg/mL
[2]; [19]
  MIC: 16 µg/mL

## Tridecaptin M152-P3
[2]; Klebsiella pneumoniae ATCC 10031 (KP-SEN), evolved line 1
  MIC of evolved line: 16 µg/mL
[2]; Klebsiella pneumoniae ATCC 10031 (KP-SEN), evolved line 2
  MIC of evolved line: 8 µg/mL
[2]; Klebsiella pneumoniae ATCC 10031 (KP-SEN), evolved line 3
  MIC of evolved line: 16 µg/mL

From publication PMC11845477, “Exploring the principles behind antibiotics with limited resistance” (Nature Communications, 2025)
